Source: publication PMC9792776 (Frontiers in Pharmacology, 2022)
Read-outs that look alike come from different tables or passages of the source.

How the values were obtained:
[1] = In vitro Caco-2 cell permeability; assay type: in vitro ADME; conditions: human
Excerpt: The first-order absorption model has different absorption rate constants (ka) and fraction available from dosage form (fa) to simulate absorption processes in fasting and fed states. […] Caco-2 (human colorectal adenocarcinoma) cells are used to model the intestinal epithelial barrier. The Simcyp (Version 19.0, Certara Inc., Sheffield, UK) minimal PBPK, which treats all organs other than the intestine and liver as a single compartment ([Rowland Yeo et al., 2010]), was selected, along with a single adjusting compartment (SAC) distribution model. The SAC is a nonphysiologic compartment that permits adjustment to the drug concentration profile in the systemic compartment ([Ke et al., 2016]).

[2] = Food effect clinical study in Chinese patients with CML (NCT03882281); assay type: in vivo, human
Excerpt: In the first study, on food effects, 12 Chinese patients with CML were randomly divided into two groups (A and B) and the experiments divided into two periods. […] After a seven- day washout period, subjects in both groups took the drug interchangeably in period 2 (NCT03882281).

[3] = biological target: T1, CYP3A4 (Homo sapiens, UniProt P08684); assay: Clinical DDI study with itraconazole and rifampicin in healthy American (White) subjects; conditions: for Cmax: plasma, oral, Cmax Obs.
T1 sequence (P08684 whole entry): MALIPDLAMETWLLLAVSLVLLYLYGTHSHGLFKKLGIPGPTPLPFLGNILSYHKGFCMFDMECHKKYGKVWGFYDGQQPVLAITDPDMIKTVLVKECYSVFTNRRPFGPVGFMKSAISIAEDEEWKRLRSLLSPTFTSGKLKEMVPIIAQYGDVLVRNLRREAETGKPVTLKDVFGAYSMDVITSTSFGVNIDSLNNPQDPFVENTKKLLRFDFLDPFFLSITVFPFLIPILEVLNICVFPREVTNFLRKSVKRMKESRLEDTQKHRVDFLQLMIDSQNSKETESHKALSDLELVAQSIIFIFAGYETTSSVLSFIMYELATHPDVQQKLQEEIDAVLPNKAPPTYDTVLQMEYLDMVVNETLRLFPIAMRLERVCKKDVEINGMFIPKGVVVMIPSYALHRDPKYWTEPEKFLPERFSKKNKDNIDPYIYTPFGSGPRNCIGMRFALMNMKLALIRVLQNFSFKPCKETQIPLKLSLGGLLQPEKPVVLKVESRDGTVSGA
Procedure: After a 3-day washout period, they were pretreated with 200 mg of oral itraconazole once daily for 4 days to inhibit CYP3A4 (Days 5–8). […] After a 3-day washout, subjects were pretreated with 600 mg of oral rifampicin once daily for 7 days to induce CYP3A4 (Days 5–11). […] Blood samples were collected immediately before and after drug administration at 0.5, 1, 2, 4, 6, 8, 12, 24, 48, 72, and 96 h.

[4] = biological target: T2, BCRP (breast cancer resistance protein) (Homo sapiens, UniProt Q9UNQ0); assay: BCRP substrate and in vivo inhibition assessment
T2 sequence (Q9UNQ0 1-655): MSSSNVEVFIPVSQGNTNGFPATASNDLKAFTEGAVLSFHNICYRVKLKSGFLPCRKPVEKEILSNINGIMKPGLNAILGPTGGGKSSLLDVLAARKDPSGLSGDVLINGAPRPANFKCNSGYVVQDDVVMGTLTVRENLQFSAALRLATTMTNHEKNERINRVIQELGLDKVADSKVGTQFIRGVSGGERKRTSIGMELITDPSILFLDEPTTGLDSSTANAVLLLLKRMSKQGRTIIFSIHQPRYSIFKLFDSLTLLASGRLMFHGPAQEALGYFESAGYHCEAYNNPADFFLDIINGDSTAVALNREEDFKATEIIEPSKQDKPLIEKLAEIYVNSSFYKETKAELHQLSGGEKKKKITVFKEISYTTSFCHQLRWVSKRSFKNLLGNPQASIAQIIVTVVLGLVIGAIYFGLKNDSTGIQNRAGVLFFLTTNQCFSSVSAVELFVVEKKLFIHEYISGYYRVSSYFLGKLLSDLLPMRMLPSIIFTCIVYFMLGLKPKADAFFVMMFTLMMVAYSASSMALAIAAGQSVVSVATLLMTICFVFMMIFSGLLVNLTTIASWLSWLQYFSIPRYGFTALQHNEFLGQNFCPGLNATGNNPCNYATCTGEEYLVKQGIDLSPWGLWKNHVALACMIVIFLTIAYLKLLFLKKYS
Excerpt: The effects of transporters expressed on the gut and liver have not been investigated.

[5] = biological target: T1, CYP3A4; conditions: recombinant enzyme
[6] = tested on: T315I-mutated CML; conditions: 40 mg QOD, 28-day cycles over 24 months, ref Jiang et al., 2022, cited from earlier work
[7] = tested on: CYP2C9; assay: in vitro; conditions: human
[8] = Chinese CML patients, fed, 30 mg SD

## Cc1ccc(C(=O)Nc2ccc(CN3CCN(C)CC3)c(C(F)(F)F)c2)cc1C#Cc1cnc2[nH]ncc2c1 [olverembatinib, Olverembatinib]
[1]
  Papp: 0.08 ×10⁻⁶ cm/s
[2]; Chinese CML patients, fasting, 30 mg SD
  AUC Obs.: 237 h?ng/mL
[2]; [8]
  AUC Obs.: 276 h?ng/mL
  Tmax Obs. (median): 6.00 h
[2]; human, plasma, 30 mg, oral, patients with CML, data on file, read-out: mean apparent terminal elimination half-life (t1/2) (converted)
  half-life: 32.7 h
[2]; human, plasma, 30 mg, oral, patients with CML, data on file, read-out: median time to reach peak plasma concentration (Tmax)
  Tmax: 6 h
[2]; human, plasma, oral, 30 mg, Chinese CML patients, fasting, 30 mg SD
  Cmax: 8.72 ng/mL
[2]; human, plasma, oral, 30 mg, Chinese CML patients, fed, 30 mg SD
  Cmax: 10.8 ng/mL
[2]; human, plasma, oral, Chinese CML patients, fasting, 30 mg SD, read-out: Tmax Obs. (median)
  Tmax: 6 h
[3]; White healthy volunteers, fed, 20 mg SD, olverembatinib alone
  AUC Obs.: 125 h?ng/mL
[3]; White healthy volunteers, fed, 40 mg SD, olverembatinib alone
  AUC Obs.: 302 h?ng/mL
[3]; coadministration with itraconazole, healthy White volunteers
  AUC Obs.: 330 h?ng/mL
[3]; coadministration with rifampicin, healthy White volunteers
  AUC Obs.: 73.0 h?ng/mL
[3]; human, in vivo
  AUC decrease after rifampicin administration: 76%
[3]; human, in vivo, 200 mg
  AUC increase after itraconazole treatment: 163%
[3]; human, 20 mg, White healthy volunteers, fed, 20 mg SD, olverembatinib alone
  Cmax: 5.26 ng/mL
[3]; human, 40 mg, White healthy volunteers, fed, 40 mg SD, olverembatinib alone
  Cmax: 12.7 ng/mL
[3]; human, coadministration with itraconazole, healthy White volunteers
  Cmax: 9.14 ng/mL
[3]; human, coadministration with rifampicin, healthy White volunteers
  Cmax: 4.54 ng/mL
[4]
  in vivo inhibition on BCRP: no obvious in vivo inhibition
  substrate of BCRP: is a substrate
[5]
  CLint CYP3A4: 0.2 µL/min/pmol CYP
[6]; CML-AP, n = 37 without MaHR at baseline
  major hematologic response (MaHR), patients: 78.4%
[6]; CML-CP, n = 121 without MCyR at baseline
  major cytogenetic response (MCyR), patients: 79.3%
[7]; EC50
  EC50: 584 nM
[7]; IndC50 CYP2C9 (Mean EC50)
  EC50: 454 nM
